We go through 3 compounds from patent US9096591B2, “Tetracyclic compounds” (Medivation Technologies, Inc., priority 2007, dated 2015).

For experiment [1], the target named is human recombinant dopamine D2S receptor (Homo sapiens, UniProt P14416). Briefly: Dopamine D2S antagonist activity ([35S]GTPγS binding, SPA). The class given is biochemical. Particulars: for Antagonist Activity As Measured by % Inhibition D2S / inhibition at 0.03 µM / inhibition at 0.1 µM / inhibition at 0.3 µM: two values = assay run twice; for inhibition at 0.03 µM / inhibition at 0.1 µM / inhibition at 0.3 µM / inhibition at 1 µM / inhibition at 3 µM: read-out: Antagonist Activity As Measured by % Inhibition D2S. The procedure: To determine for agonist or antagonist activity of compounds of the invention in functional assays, human recombinant dopamine D2S receptor stably expressed in Chinese hamster ovary (CHO) cells (Gilliland S L and Alper R H. Naunyn-Schmiedeberg's Archives of Pharmacology. 361: 498, 2000) was used. Compounds of invention were pre-incubated with the membranes (0.05 mg/ml) and 3 μM GDP in modified HEPES buffer (20 mM HEPES, pH 7.4, 100 mM NaCl, 10 mM MgCl2, 1 mM DTT, 1 mM EDTA) for 20 minutes and Scintillation Proximity Assay (SPA) beads were then added for another 60 minutes at 30° C. The reaction was initiated by 0.3 nM [^35S]GTPγS for an additional 30 minute incubation period. […] Compounds were screened at 3 μM or lower, using 0.4% DMSO as vehicle. Assay results are presented as the percent response of specific binding in Table 9.
Chain of human recombinant dopamine D2S receptor (P14416 1-414 isoform P14416-2): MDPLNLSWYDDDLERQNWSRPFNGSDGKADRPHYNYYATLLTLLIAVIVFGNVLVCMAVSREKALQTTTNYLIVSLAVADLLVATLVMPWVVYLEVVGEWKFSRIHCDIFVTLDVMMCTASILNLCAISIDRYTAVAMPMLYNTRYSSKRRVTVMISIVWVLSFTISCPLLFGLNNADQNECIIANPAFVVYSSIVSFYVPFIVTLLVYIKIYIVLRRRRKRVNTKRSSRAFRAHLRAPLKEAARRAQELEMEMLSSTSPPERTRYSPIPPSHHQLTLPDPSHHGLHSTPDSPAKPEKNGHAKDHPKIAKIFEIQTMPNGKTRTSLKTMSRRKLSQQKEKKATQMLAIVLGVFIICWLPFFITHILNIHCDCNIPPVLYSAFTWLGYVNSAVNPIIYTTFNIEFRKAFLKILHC
On the technique in general: GTPγS is a poorly hydrolysed GTP analogue; its binding reports G protein activation.

In experiment [2] the target is T1, human recombinant serotonin 5-HT2A receptor (Homo sapiens, UniProt P28223).
T1 construct: expressed in transfected cells; host or cells: HEK-293 cells
T1 sequence (P28223 whole entry): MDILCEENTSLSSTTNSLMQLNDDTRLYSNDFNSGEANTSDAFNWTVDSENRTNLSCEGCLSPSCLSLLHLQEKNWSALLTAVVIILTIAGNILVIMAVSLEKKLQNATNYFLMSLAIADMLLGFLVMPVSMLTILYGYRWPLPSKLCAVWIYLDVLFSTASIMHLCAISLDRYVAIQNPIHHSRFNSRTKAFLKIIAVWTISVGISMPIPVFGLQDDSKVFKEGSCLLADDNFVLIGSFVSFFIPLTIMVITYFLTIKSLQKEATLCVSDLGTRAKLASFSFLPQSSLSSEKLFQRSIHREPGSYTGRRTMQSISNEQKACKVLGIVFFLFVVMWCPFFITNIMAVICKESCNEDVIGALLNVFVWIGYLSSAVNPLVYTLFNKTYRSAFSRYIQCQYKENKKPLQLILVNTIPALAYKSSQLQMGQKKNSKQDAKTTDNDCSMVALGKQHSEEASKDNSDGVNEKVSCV
The experiment can be described thus: Serotonin 5-HT2A agonist/antagonist functional assay (calcium fluorescence, HEK-293). As to conditions: antagonist mode. The class given is cell-based. The text has this:
To determine for agonist or antagonist activity of compounds of the invention in functional assays, human recombinant serotonin 5-HT2A receptor expressed in human embryonic kidney (HEK-293) cells (Jerman J C, Brough S J, Gager T, Wood M, Coldwell M C, Smart D and Middlemiss D N. Eur J Pharmacol, 414: 23-30, 2001) was used. Cells were suspended in DMEM buffer, and distributed in microplates. A cytoplasmic calcium fluorescent indicator which varies proportionally to the free cytosolic Ca^2+ ion concentration was mixed with probenicid in HBSS buffer complemented with 20 mM Hepes (pH 7.4), added into each well and equilibrated with the cells for 30 min at 37° C. followed by 30 min at 22° C. […]
The standard reference antagonist was ketanserin, which was tested in each experiment at several concentrations to generate a concentration-response curve from which its IC50 value was calculated.

The subject of a further experiment is C57BL/6 mice. The experiment can be described thus: Recognition of a new location of the known object (spatial memory). The class given is in vivo. The text has this:
The object recognition test is based on the fact that mice and rats spontaneously explore new object or location of a known object a lot longer than the know object or a known location of an object. This test was first used in rats (Ennaceur A., Delacour J., 1988). It was further shown by others that this type of memory testing is suitable for mice (Dodart J. et al. 1997, Messier C. 1997, Pittenger C. et al., 2002, Ryabinin A. et al., 2002, Sargolini F. et al., 2003). The method of recognition of an object is divided in two stages. The first one involves the recognition of a new location of a known object, which is used to assess spatial memory. The second one includes a test for recognition of a new in order to evaluate the non-spatial memory (Gaffan D., 1992, Kolb B. et al., 1994, Steckler T., 1998). Currently, both are widely used to determine the effectiveness of newly synthesized drugs on memory.
All experiments were carried out on 3-4 months old males (C57BL/6 line) 22-26 g weight with 10 animals in each group. All animals were kept in the animal facility (5 animals per cage) on the 12×12 hours light cycle (8 am-8 pm) with free access to food and water. […] Brown glass vials were used as test objects which are 2.7 cm in diameter (1.1 inch) and 5.5 cm high (2.2 inch). All vials were treated with 85% ethanol 2-3 minutes before each testing. Animals were placed in the center of the chamber.
Dimebon and compounds of the invention were dissolved in distilled water and administered orally at 0.05 mL per 10 g of animal mass 1 hour before the training exercise. All animals in the control group were treated with the equivalent dose of vehicle. The testing was performed 48 hours after the training exercise because animals forget the location of the object during the 48-hour resting time.
On the first day animals were brought in the testing room so that they could adapt to the testing environment for 20-30 min. Subsequently, each animal was placed in the empty testing chamber for 10 min, which was wiped with alcohol beforehand. After that animals were transferred back into the […] and returned to the animal facility.
The next day after habituation, the animals were brought back into the testing room where they were weighed and injected with the testing compound. An hour after injection, each animal was placed into the testing camber which had two identical objects that were positioned 14.5 cm (5.7 inches) from the corners on the diagonal. The training exercise lasted for 15 min for each animal. Subsequently, each animal was placed back into the cage and returned into the animal house.
The testing procedure was performed 48 hours after the training exercise. During the procedure two objects were used as in the training exercise. […] The amount of time that each animal spent on exploration each object was determined with 0.1 sec accuracy using two electronic stopwatches for total of 10 min. […] The survey of the object was counted as positive if the nose of an animal was pointed within 2 cm or if the animal was touching the objected directly with the nose.
Due to fair differences in the amount of time that each animal surveyed the object, the percentage of the survey time for each animal was determined using this formula: tNL/(tFL+tNL)×100 (where t is time, NL—new location(object), and FL—familiar location(object)). […] Subsequently, the statistical significance was analyzed using a Student's t-test criteria.

Each structure is given as a SMILES string. Where “and” joins values, the source holds several entries; their conditions need not be identical. Equal entries are not always repeated.

Broadly, the inhibition is the change of the read-out against control, counted positive when it falls. For `CN1CCc2c(c3cc(Cl)ccc3n2CCc2ccccc2)C1` [Compound 36, 8-chloro-2,3,4,5-tetrahydro-2-methyl-5-phenethyl-1H-pyrido[4,3-b]indole], in experiment [1] (0.03 uM), the “Antagonist Activity As Measured by % Inhibition D2S” value came to 85% and the inhibition at 0.03 µM amounted to 76%. For the same compound, in experiment [1] (0.1 uM), the inhibition at 0.1 µM was determined as 97%. In experiment [1] (0.3 uM), the “Antagonist Activity As Measured by % Inhibition D2S” value is 104% and the inhibition at 0.3 µM was 98%. Further, in experiment [1], the inhibition at 1 µM stood at 102% and the inhibition at 3 µM was found to be 107%. In addition, in experiment [2] (test concentration 1.00E−07 M), the “% of Control Agonist Response, 1st Assay” value was 111% and 100% and 105%; the “% of Control Agonist Response, 2nd Assay” value was 102% and 106% and 115%; the “% of Control Agonist Response, Mean” value is 106.4% and 103% and 109.9%. Besides, in experiment [2] (test concentration 3.00E−06 M), the “% of Control Agonist Response, Mean” value is 5.3% and 9.7% and 0.4%. In experiment [2] (test concentration 3.00E−07 M), the “% of Control Agonist Response, 1st Assay” value was 92% and 109%; the “% of Control Agonist Response, 2nd Assay” value is 105% and 98% and 97%; the “% of Control Agonist Response, Mean” value was 98.8% and 94.8% and 102.8%. In experiment [2] (test concentration 3.00E−08 M), the “% of Control Agonist Response, 1st Assay” value is given as 109%; the “% of Control Agonist Response, 2nd Assay” value came to 108%; the “% of Control Agonist Response, Mean” value came to 108.7%.

Take `COc1ccc(CCn2c3c(c4cc(C)ccc42)CN(C)CC3)cc1` [Compound 247]: the figures for the “Antagonist Activity As Measured by % Inhibition D2S” value in experiment [1] (0.03 uM), in experiment [1] (0.1 uM) and in experiment [1] (0.3 uM) were 68%, 89% and 93%, respectively. The inhibition at 0.03 µM in experiment [1] (0.03 uM) amounted to 67%. Besides, in experiment [1] (0.1 uM), the inhibition at 0.1 µM came to 97%. In addition, the inhibition at 0.3 µM in experiment [1] (0.3 uM) was 81%. Further, the inhibition at 1 µM in experiment [1] came to 110%. Moreover, the inhibition at 3 µM in experiment [1] worked out at 108%. Moreover, the “% of Control Agonist Response, 1st Assay” value in experiment [2] (test concentration 1.00E−06 M) was −4% and −2% and 2%; in experiment [2] (test concentration 1.00E−07 M) it was 117% and 93%; in experiment [2] (test concentration 3.00E−06 M), −4%; in experiment [2] (test concentration 3.00E−08 M), 122% and 103%. Also, the “% of Control Agonist Response, 2nd Assay” value in experiment [2] (test concentration 1.00E−06 M) was 0% and 3%; in experiment [2] (test concentration 1.00E−07 M) it was 116% and 94% and 95%; in experiment [2] (test concentration 3.00E−06 M), −3%; in experiment [2] (test concentration 3.00E−07 M), 76% and 72% and 38%; in experiment [2] (test concentration 3.00E−08 M), 120% and 108% and 111%. Besides, the “% of Control Agonist Response, Mean” value was −1.7% and 0.3% and 0.7% in experiment [2] (test concentration 1.00E−06 M); 116.5% and 93.5% and 93.9% in experiment [2] (test concentration 1.00E−07 M); −3.2% in experiment [2] (test concentration 3.00E−06 M); 121.3% and 104.5% and 107% in experiment [2] (test concentration 3.00E−08 M).

For the compound `CN1CCc2c(c3ccccc3n2CCc2noc(-c3ccccc3)n2)C1` [Compound C4-1], the “effect on memory in the recognition test of a known object in a new location” value in the experiment on C57BL/6 mice (0.05 mg/kg, 0.5 mg/kg, and 1 mg/kg) is reported as “not significantly different from the control group”. Moreover, in the experiment on C57BL/6 mice (0.1 mg/kg), the “time exploring the object in a new location, % of the total time” value came to 61.3±6.9% and the “time exploring the object in the known position, % of the total time” value is reported as 38.7±6.9%.
